Source: patent US20260306527A1, “PRMT INHIBITOR COMPOUNDS AND THE USES THEREOF” (Purdue Research Foundation, priority 2023, published 2026)
Entries after “also recorded” stand apart in the source; their conditions may differ.

Tests used:
PRMT3 [1] = target: T1, PRMT3 (Homo sapiens, UniProt O60678); experiment: SAHH-coupled fluorescence assay, inhibition of PRMT3; format: biochemical; design: PRMT3 (residues 211-531) was cloned into the pET28a-MHL expression vector; tag of the pET28a-MHL vector (not described); made in house; host or cells: Escherichia coli BL21(DE3)
T1 sequence (O60678 211-531): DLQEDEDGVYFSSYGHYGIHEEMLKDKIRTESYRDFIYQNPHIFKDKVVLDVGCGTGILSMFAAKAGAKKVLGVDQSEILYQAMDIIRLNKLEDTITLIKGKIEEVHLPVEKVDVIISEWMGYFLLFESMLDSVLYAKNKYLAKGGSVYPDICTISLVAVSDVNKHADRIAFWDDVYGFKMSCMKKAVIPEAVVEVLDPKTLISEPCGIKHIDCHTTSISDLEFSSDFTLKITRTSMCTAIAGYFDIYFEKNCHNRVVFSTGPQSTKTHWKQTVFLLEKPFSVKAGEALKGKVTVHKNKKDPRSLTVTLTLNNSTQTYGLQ
In short: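 Coupled SAHH/ThioGlo4 fluorescence read-out (ex 380 nm, em 505 nm) of PRMT3 (0.25 μM) methylation with 30 μM AdoMet and 5 μM SAHH. Buffer was 20 mM Tris pH 7.5 with 0.01% Triton X-100. Run in duplicate.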

PRMTs = settings: cited from earlier work
PRMT8 = PRMT8 (Homo sapiens, UniProt Q9NR22); experiment: radioactive assay (Reaction Biology Corp.), inhibition of PRMT8; format: biochemical
Sequence of PRMT8 (Q9NR22 whole entry, species assumed): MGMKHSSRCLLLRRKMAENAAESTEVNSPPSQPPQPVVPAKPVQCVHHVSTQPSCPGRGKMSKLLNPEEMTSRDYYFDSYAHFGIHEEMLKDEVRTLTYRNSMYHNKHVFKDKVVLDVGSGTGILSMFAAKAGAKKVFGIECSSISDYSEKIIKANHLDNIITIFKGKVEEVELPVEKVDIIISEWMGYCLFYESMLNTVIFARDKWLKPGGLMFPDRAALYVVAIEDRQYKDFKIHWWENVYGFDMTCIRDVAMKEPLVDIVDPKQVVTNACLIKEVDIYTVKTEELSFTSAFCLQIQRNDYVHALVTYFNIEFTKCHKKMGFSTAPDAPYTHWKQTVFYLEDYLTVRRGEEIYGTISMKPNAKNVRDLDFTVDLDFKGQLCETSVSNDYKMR
Description: (§1) Next, the inhibition activity of the library was investigated for five PRMT members from type I PRMTs.
(§2) The PRMT 4, 6 and 8 methylation assays were performed by Reaction Biology corp.

PRMT3 [2] = experiment: selectivity of YD1113/YD1290 on PRMT panel, PRMT3; format: biochemical
Description: (§3) The selectivity of compounds YD1113 and YD1290 on PRMTs were performed by Reaction Biology Corp.
(§4) Next, the selectivity of YD1113 was investigated on a panel of PRMTs at 10 μM.
(§5) After validating the benzyl urea moiety as an unconventional homocysteine mimic of SAH for PRMTs, it was hypothesized that incorporating the benzyl urea moiety into the original pan PRMT inhibitor II757 would build a potent bisubstrate inhibitor. […] To enable a stable tri-substitution, the sulfur atom with a nitrogen atom was replaced. YD1290 was synthesized following the reported methods 9, 15 and tested in a radioactivity assay for PRMTs (FIG. 6b).

PRMT1 [3] = target: T2, PRMT1 (Homo sapiens, UniProt Q99873); experiment: SAHH-coupled fluorescence assay, inhibition of PRMT1; format: biochemical
T2 construct: made in house
T2 sequence (Q99873 whole entry, species assumed): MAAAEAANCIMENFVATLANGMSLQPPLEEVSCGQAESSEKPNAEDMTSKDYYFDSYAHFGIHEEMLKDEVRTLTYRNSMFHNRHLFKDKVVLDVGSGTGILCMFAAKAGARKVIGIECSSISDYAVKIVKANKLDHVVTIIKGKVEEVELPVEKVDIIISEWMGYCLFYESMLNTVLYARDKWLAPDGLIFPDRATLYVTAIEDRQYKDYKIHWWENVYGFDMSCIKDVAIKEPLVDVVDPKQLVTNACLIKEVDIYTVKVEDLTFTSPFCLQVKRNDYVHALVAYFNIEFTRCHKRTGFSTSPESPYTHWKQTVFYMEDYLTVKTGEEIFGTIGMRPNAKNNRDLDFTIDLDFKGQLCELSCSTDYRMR
In short: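 PRMT1 (0.1 μM) was run with 10 μM AdoMet, 5 μM SAHH and 10 μM ThioGlo4 in 2.5 mM HEPES pH 7.0, 25 mM NaCl, 25 μM EDTA, 50 μM TCEP and 0.01% Triton X-100. Fluorescence (ex 400/em 465 nm) was monitored for 15 min. Assays were done in duplicate.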

PRMT3 [4] = experiment: SAHH-coupled fluorescence assay, inhibition of PRMT3; format: biochemical; settings: read-out: IC50[μM] | PRMT3
Description: A fluorescence-based SAHH-coupled assay was applied to study the inhibition activity of all synthesized compounds on PRMT 1 and 3.
(§6) The PRMT3 methylation assay was performed under the following conditions in a final well volume of 100 μL: 20 mM Tris (pH=7.5), 0.01% Triton X-100, 5 μM SAHH, 0.25 μM PRMT3, 30 μM AdoMet, and 15 μM ThioGlo4. […] Fluorescence was monitored on a BMG CLARIOstar microplate reader with excitation 380 nm and emission 505 nm. Data were processed by using GraphPad Prism software 8.0. All experiments were performed in duplicate.
as §1
as §6, with “8.0.” for “8.0. All experiments were performed in duplicate.”

PRMT4 [5] = experiment: selectivity of YD1113/YD1290 on PRMT panel, PRMT4; format: biochemical
Description: as §3, §4, §5

PRMT6 = PRMT6 (Homo sapiens, UniProt Q96LA8); experiment: radioactive assay (Reaction Biology Corp.), inhibition of PRMT6; format: biochemical
Sequence of PRMT6 (Q96LA8 whole entry, species assumed): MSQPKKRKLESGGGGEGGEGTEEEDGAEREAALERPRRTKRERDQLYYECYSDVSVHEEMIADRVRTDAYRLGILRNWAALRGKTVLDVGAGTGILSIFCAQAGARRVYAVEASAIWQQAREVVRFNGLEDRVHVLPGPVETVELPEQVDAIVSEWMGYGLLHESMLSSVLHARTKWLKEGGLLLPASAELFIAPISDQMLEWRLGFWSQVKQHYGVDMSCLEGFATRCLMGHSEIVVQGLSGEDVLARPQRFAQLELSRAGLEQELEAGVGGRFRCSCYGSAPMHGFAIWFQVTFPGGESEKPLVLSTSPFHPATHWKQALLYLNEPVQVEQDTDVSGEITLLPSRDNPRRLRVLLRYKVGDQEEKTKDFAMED
Description: as §1, §2

PRMT4 [6] = target: T3, PRMT4 (Homo sapiens, UniProt Q86X55); experiment: radioactive assay (Reaction Biology Corp.), inhibition of PRMT4; format: biochemical
T3 sequence (Q86X55 1-608): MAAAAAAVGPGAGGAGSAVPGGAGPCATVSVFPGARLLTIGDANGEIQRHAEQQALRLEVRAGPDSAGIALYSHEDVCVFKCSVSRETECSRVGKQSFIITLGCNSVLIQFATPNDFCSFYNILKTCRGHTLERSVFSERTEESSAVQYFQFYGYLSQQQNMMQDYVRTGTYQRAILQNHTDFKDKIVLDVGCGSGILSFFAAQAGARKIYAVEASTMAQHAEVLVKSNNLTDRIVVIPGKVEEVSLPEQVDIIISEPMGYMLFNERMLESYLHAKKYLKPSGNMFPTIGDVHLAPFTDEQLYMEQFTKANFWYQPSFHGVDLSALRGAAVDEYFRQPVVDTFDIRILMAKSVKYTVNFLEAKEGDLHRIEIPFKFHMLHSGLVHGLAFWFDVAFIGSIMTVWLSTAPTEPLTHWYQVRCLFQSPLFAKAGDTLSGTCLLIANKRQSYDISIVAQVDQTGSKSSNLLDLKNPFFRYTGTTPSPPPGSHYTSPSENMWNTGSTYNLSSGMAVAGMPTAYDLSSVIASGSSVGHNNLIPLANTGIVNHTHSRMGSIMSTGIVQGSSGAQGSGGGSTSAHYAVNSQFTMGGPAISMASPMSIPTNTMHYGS
Description: as §1, §2

PRMT7 [7] = experiment: selectivity of YD1113 on PRMT panel, PRMT7; format: biochemical
Description: as §3, §4

PRMT4/7 = settings: previously reported; cited from earlier work
PRMT 5/7 = settings: cited from earlier work
DOT1L = settings: cited from earlier work
PRMT1 [8] = target: T2, PRMT1; experiment: thermal shift assay PRMT1; format: binding; settings: 100 μM compound, 10 μM protein
Description: (§7) The fluorescence-based thermal shift assay was performed using a StepOne plus qPCR instrument (Thermal Fisher). For PRMT1, 10 μM of protein was mixed with 2× sypro orange and DMSO, or 100 μM SAM, or 100 μM YD1113, or 100 μM YD1290 in a buffer consisting of 2.5 mM HEPES (pH=7.0), 25 mM NaCl, 25 μM EDTA, 50 μM TCEP, 0.01% Triton X-100. For PRMT3, 20 μM of protein was mixed with 2× sypro orange and DMSO, or 100 μM SAM, or 100 μM YD1113, or 100 μM YD1290 in a buffer consisting of 20 mM Tris (pH=7.5), 0.01% Triton X-100. For PRMT4, 20 μM of protein was mixed with 2× sypro orange and DMSO, or 100 μM SAM, or 100 μM YD1113, or 100 μM YD1290 in a buffer consisting of 20 mM bicine (pH=8.5), 0.01% Triton X-100. All samples were heated from 25° C. to 75° C. at an increased rate of 0.5° C. per minute. Protein denaturation was monitored by the increased fluorescence signal of Sypro Orange, which captures exposed hydrophobic residues during thermal unfolding. The recorded curves were analyzed by the software StepOne plus and plotted in GraphPad Prism 8 software.
(§8) Next, the thermal shift assay (TSA) was conducted as an orthogonal method to examine the effects of YD1290 on the thermal stability of PRMT1, 3, and 4 (Figure S1).

PRMT4 [9] = target: T4, PRMT4 (Homo sapiens, UniProt Q86X55); experiment: thermal shift assay PRMT4; format: binding; settings: 100 μM compound, 20 μM protein
T4 construct: PRMT4 (residues 140-480) was cloned into the pFBOH-MHL vector; tag of the pFBOH-MHL vector (poly-His implied by Ni-NTA purification; not described); made in house; host or cells: Sf9 insect cells
Description: as §7, §8

PRMT3 [10] = target: T1, PRMT3; experiment: thermal shift assay PRMT3; format: binding; design: PRMT3 (residues 211-531) was cloned into the pET28a-MHL expression vector; tag of the pET28a-MHL vector (not described); made in house; host or cells: Escherichia coli BL21(DE3); settings: 100 μM compound, 20 μM protein
Description: as §7, §8

PRMT7 [11] = target: PRMT7 (Homo sapiens, UniProt Q9NVM4); settings: cited from earlier work
Sequence of PRMT7 (Homo sapiens, UniProt Q9NVM4) (Q9NVM4 whole entry, species assumed): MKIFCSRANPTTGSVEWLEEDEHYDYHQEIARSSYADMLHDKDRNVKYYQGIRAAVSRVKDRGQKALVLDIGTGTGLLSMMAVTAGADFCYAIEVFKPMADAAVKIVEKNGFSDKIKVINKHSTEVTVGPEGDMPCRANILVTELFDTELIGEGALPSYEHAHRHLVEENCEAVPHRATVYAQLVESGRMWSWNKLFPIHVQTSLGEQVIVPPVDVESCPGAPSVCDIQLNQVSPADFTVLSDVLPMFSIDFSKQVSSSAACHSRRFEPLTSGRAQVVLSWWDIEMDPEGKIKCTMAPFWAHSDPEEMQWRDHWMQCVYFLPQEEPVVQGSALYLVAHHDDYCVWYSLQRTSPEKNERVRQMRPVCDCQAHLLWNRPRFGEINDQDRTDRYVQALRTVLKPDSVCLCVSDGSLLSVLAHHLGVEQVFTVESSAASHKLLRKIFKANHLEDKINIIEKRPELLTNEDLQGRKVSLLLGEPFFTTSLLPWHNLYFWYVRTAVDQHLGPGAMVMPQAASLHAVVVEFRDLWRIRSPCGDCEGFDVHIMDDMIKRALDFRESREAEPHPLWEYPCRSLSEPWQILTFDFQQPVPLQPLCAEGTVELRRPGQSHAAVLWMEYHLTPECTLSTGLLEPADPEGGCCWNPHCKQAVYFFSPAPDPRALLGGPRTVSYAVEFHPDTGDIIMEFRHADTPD

PRMT4/5 = experiment: inhibition of PRMT4/5 (figure legend); format: biochemical

N=C(NCCCSC[C@H]1O[C@@H](n2cnc3c(N)ncnc32)[C@H](O)[C@@H]1O)Nc1cccc(Br)c1 [Compound 5f]
inhibition at 10 µM (PRMT3 [1]): 68%
inhibition of all PRMTs (PRMTs): broad and potent inhibition to all PRMTs
inhibition at 10 µM (PRMT8): 100%
IC50 (PRMT3 [2]): 321 nM
inhibition at 10 µM (PRMT1 [3]): 94%
IC50 (PRMT1 [3]; read-out: IC50[μM] | PRMT1): 0.08 ± 0.016 µM
IC50 (PRMT3 [4]): 2.2 ± 0.29 µM
IC50 (PRMT4 [5]): 5.05 nM
inhibition at 10 µM (PRMT6): 100%
inhibition at 10 µM (PRMT4 [6]): 100%
IC50 (PRMT7 [7]): 555 nM

Nc1ncnc2c1ncn2[C@@H]1O[C@H](CSCCCNCc2cccc(-c3ccc(Cl)cc3)c2)[C@@H](O)[C@H]1O [Compound 10m]
inhibition at 10 µM (PRMT3 [1]): 22%
inhibition at 10 µM (PRMT8): 73%
inhibition at 10 µM (PRMT1 [3]): 65%
PRMT4/7 inhibition (PRMT4/7): potent PRMT4/7 inhibitor
inhibition at 10 µM (PRMT6): 46%
PRMT4 inhibition (PRMT4 [6]): more potent PRMT4 inhibition activity than SGC8158
inhibition at 10 µM (PRMT4 [6]): 99%

CCNC(=O)NCCSC[C@H]1O[C@@H](n2cnc3c(N)ncnc32)[C@H](O)[C@@H]1O [DS-437]
PRMT 5/7 inhibition (PRMT 5/7): dual inhibition to PRMT 5/7

CC(C)N(CCCNC(=O)Nc1ccc(C(C)(C)C)cc1)C[C@H]1O[C@@H](n2ccc3c(N)ncnc32)[C@H](O)[C@@H]1O [EPZ004777]
selectivity for DOT1L (DOT1L): high selectivity

C[S+](CC[C@H](N)C(=O)O)C[C@H]1O[C@@H](n2cnc3c(N)ncnc32)[C@H](O)[C@@H]1O (stereo partly drawn) [SAM, S-adenosyl-L-methionine, reference compound]
ΔTm PRMT1 (PRMT1 [8]): +1.6 °C
ΔTm PRMT4 (PRMT4 [9]): +1.9 °C
ΔTm PRMT3 (PRMT3 [10]): +1.1 °C

Nc1ncnc2c1ncn2C1OC(CSCCCCNCc2cccc(-c3ccc(Cl)cc3)c2)C(O)C1O (stereo not shown) [SGC8158]
PRMT7 inhibition (PRMT7 [11]): selectively inhibits PRMT7; also recorded: selective PRMT7 inhibition; also recorded: selective PRMT7 inhibitor

CC(CN(CCCN)C[C@H]1O[C@@H](n2cnc3c(N)ncnc32)[C@H](O)[C@@H]1O)NC(=O)NCc1ccccc1 (stereo partly shown) [YD1288]
PRMT4/5 inhibition (PRMT4/5): dual selective and potent PRMT4/5 inhibitor
